# Assay results taken from patent US8569372B2, “Method for preventing or treating a disease, disorder or condition induced by retina ischemia” (priority 2011, dated 2013).
# System: cholinergic amacrine cells (ChAT immunoreactivity)
# Experiment: ChAT immunofluorescence of the retina after ischaemia/reperfusion
# Format: in vivo, Wistar rats
# Conditions: 100 μM SAC pre-treatment
# Protocol: The rats (200-250 g) were anaesthetized and placed in a stereotaxic frame. The anterior chamber of one eye was cannulated with a 30-gauge needle connected to a 0.9% saline reservoir; this caused a high IOP (HIOP) of 120 mmHg for 60 minutes. Eye fundus whitening and a low ERG response confirmed induction of an ischaemic insult. A sham procedure was carried out on the controls. Drug administration involved the pre-administration (15-minute before 60-minute HIOP induced retinal ischaemia) of SAC (25, 50, 100 μM) or vehicle (saline; control). The ischemic eye of each test rat was treated with or without a single intravitreous injection of 5 μl of the test compound. In addition, SAC (100 μM) was administered to the non-ischaemic eye (normal) to see whether SAC has any adverse effects. In both cases, the paired normal eye was untreated. The rats were sacrificed and intracardially perfused with 0.9% normal saline (w/v). Then the rat retinas were removed, fixed with 4% (w/v) paraformaldehyde for 45 minutes and then transferred to 30% sucrose for cryosectioning. Sampling was carried out one or seven days after the sham-operation or induction of retinal ischaemia. […] The retinal sections were examined using a fluorescence microscope (Olympus BX61, Center Valley, Pa., USA).
smiles,measurement,setting,value
"C=CCSC[C@H](N)C(=O)O [SAC, S-allyl L-cysteine]",ChAT immunopositive amacrine cell bodies per field,"1 day after I/R, sham 39±3, vehicle 14±1",26±2 per field
same,ChAT immunopositive amacrine cell bodies per field,"7 days after I/R, sham 38±3, vehicle 10±5",24±5 per field
